Laboratory results from ChEMBL document CHEMBL1146284, “Antitumor activity of the marine natural product dibromophakellstatin in vitro” (Bioorg Med Chem Lett, 2007).

Tests used:
Type in all cases: functional, cell-based
[1] = Antiproliferative activity against human LXF 529L cells
SF-268 = experiment: Antiproliferative activity against human SF268 cells
[2] = Antiproliferative activity against human MEXF 394NL cells
[3] = Antiproliferative activity against human OVXF 899L cells
[4] = Antiproliferative activity against human CNXF 498NL cells
DU-145 = experiment: Antiproliferative activity against human DU145 cells
[5] = Antiproliferative activity against human LXF 1121L cells
PANC-1 = experiment: Antiproliferative activity against human PANC1 cells
CWR22R = experiment: Antiproliferative activity against human 22RV1 cells
[6] = Antiproliferative activity against human LXF 289L cells
[7] = Antiproliferative activity against human MAXF 401NL cells
[8] = Antiproliferative activity against human RXF 393NL cells
[9] = Antiproliferative activity against human OVXF 1619L cells
LNCaP = experiment: Antiproliferative activity against human LNCAP cells
[10] = Antiproliferative activity against human LXF 629L cells
NCI-H460 = experiment: Antiproliferative activity against human H460 cells
[11] = Antiproliferative activity against human UXF 1138L cells
HT-29 = experiment: Antiproliferative activity against human HT29 cells
[12] = Antiproliferative activity against human GXF 251L cells
[13] = Antiproliferative activity against human RXF 486NL cells […]
T-24 = experiment: Antiproliferative activity against human T24 cells
[14] = Antiproliferative activity against human LXF 526L cells
[15] = Antiproliferative activity against human MEXF 514NL cells
[16] = Antiproliferative activity against human PC3M cells; settings: PC-3M
[17] = Antiproliferative activity against human MEXF 520L cells
HCT-116 = experiment: Antiproliferative activity against human HCT116 cells
[18] = Antiproliferative activity against human BXF 1218L cells
[19] = Antiproliferative activity against human MEXF 276L cells; settings: MEXF276L
[20] = Antiproliferative activity against human HNXF 536L cells
[21] = Antiproliferative activity against human PAXF 1675L cells
[22] = Antiproliferative activity against human RXF 1781L cells
[23] = Antiproliferative activity against human MEXF 462NL cells
[24] = Antiproliferative activity against human PXF 1752L cells
[25] = Antiproliferative activity against human RXF 944NL cells
MCF7 = experiment: Antiproliferative activity against human MCF7 cells
OVCAR-3 = experiment: Antiproliferative activity against human OVCAR-3 cells

`O=C1c2cc(Br)c(Br)n2C2C(Cl)(Cl)C23CCCN13` (racemic) gave an IC50 ([1]; Homo sapiens, LXF 529L) of 9.84 µM, an IC50 (SF-268; Homo sapiens, SF-268) of 3.91 µM and an IC50 ([2]; Homo sapiens, MEXF 394NL) of 7.87 µM. For the same molecule, the IC50 ([3]; Homo sapiens, OVXF 899L) was 5.37 µM and the IC50 ([4]; Homo sapiens, CNXF 498NL) was 5.84 µM.
In the case of `O=C1NC2n3c(cc(Br)c3Br)C(=O)N3CCCC23N1` (racemic), the IC50 (DU-145) is reported as > 10 µM, the IC50 [5] is reported as > 10 µM and the IC50 (PANC-1) is reported as 4.06 µM. The IC50 (CWR22R) was > 10 µM, the IC50 [6] was > 10 µM and the IC50 [7] was > 10 µM. For the same molecule, the IC50 [8] was > 10 µM, the IC50 [9] was 2.23 µM and the IC50 (LNCaP) was > 10 µM. The IC50 [10] was > 10 µM, the IC50 (NCI-H460) was > 10 µM and the IC50 [11] was 1.21 µM. The IC50 (HT-29) was > 10 µM, the IC50 [12] was > 10 µM and the IC50 [13] was > 10 µM. For the same molecule, the IC50 (T-24) was > 10 µM, the IC50 [14] was > 10 µM and the IC50 [15] was 4.41 µM. For the same molecule, the IC50 ([1]; Homo sapiens, LXF 529L) was 0.96 µM, the IC50 (SF-268; Homo sapiens, SF-268) was 2.28 µM and the IC50 ([2]; Homo sapiens, MEXF 394NL) was 1.37 µM. For the same molecule, the IC50 [16] was 2.42 µM, the IC50 [17] was > 10 µM and the IC50 (HCT-116) was > 10 µM. The IC50 ([3]; Homo sapiens, OVXF 899L) was 0.6 µM, the IC50 [18] was > 10 µM and the IC50 [19] was > 10 µM. For the same molecule, the IC50 ([4]; Homo sapiens, CNXF 498NL) was 0.93 µM, the IC50 [20] was > 10 µM and the IC50 [21] was > 10 µM. The IC50 [22] was > 10 µM, the IC50 [23] was > 10 µM and the IC50 [24] was > 10 µM. The IC50 [25] was > 10 µM, the IC50 (MCF7) was > 10 µM and the IC50 (OVCAR-3) was > 10 µM.
In the case of `CN1C(=O)c2cc(Br)c(Br)n2C2C1C2(Cl)Cl` (racemic), the IC50 ([1]; Homo sapiens, LXF 529L) is reported as > 10 µM, the IC50 (SF-268; Homo sapiens, SF-268) is reported as > 10 µM and the IC50 ([2]; Homo sapiens, MEXF 394NL) is reported as 1.35 µM. The IC50 ([3]; Homo sapiens, OVXF 899L) was > 10 µM and the IC50 ([4]; Homo sapiens, CNXF 498NL) was > 10 µM.
In the case of `CCOC(=O)N1C(=O)N(OS(=O)(=O)c2ccc(C)cc2)C23CCCN2C(=O)c2cc(Br)c(Br)n2C13` (racemic), the IC50 (DU-145) is reported as > 10 µM, the IC50 [5] is reported as > 10 µM and the IC50 (PANC-1) is reported as 5 µM. For the same molecule, the IC50 (CWR22R) was > 5.92 µM, the IC50 [6] was > 10 µM and the IC50 [7] was 8.16 µM. For the same molecule, the IC50 [8] was > 10 µM, the IC50 [9] was 4.83 µM and the IC50 (LNCaP) was > 10 µM. The IC50 [10] was 6.52 µM, the IC50 (NCI-H460) was > 10 µM and the IC50 [11] was 8.96 µM. The IC50 (HT-29) was > 10 µM, the IC50 [12] was > 10 µM and the IC50 [13] was > 10 µM. The IC50 (T-24) was 9.98 µM, the IC50 [14] was 7.96 µM and the IC50 [15] was > 10 µM. For the same molecule, the IC50 ([1]; Homo sapiens, LXF 529L) was > 10 µM, the IC50 (SF-268; Homo sapiens, SF-268) was 6.45 µM and the IC50 ([2]; Homo sapiens, MEXF 394NL) was 4.02 µM. For the same molecule, the IC50 [16] was 8.6 µM, the IC50 [17] was > 10 µM and the IC50 (HCT-116) was > 10 µM. It also gave an IC50 ([3]; Homo sapiens, OVXF 899L) of 8.89 µM, an IC50 [18] of 7.42 µM and an IC50 [19] of 9.44 µM. The IC50 ([4]; Homo sapiens, CNXF 498NL) was > 10 µM, the IC50 [20] was 7.24 µM and the IC50 [21] was > 10 µM. The IC50 [22] was > 10 µM, the IC50 [23] was > 10 µM and the IC50 [24] was > 10 µM. For the same molecule, the IC50 [25] was 6.3 µM, the IC50 (MCF7) was > 10 µM and the IC50 (OVCAR-3) was > 10 µM.
`O=C1N[C@H]2n3c(cc(Br)c3Br)C(=O)N3CCC[C@]23N1` [DIBROMOPHAKELLSTATIN] gave an IC50 ([1]; lxf 529l) of 1.62 µM, an IC50 (SF-268; sf-268) of 0.55 µM and an IC50 ([2]; mexf 394nl) of 1.35 µM. The IC50 ([3]; ovxf 899l) was 0.05 µM and the IC50 ([4]; cnxf 498nl) was 0.72 µM.
With `O=C1N[C@H]2n3c(cc(Br)c3Br)C(=O)N3CCC[C@]23N1` the IC50 ([1]; lxf 529l) was > 10 µM, the IC50 (SF-268; sf-268) was > 10 µM and the IC50 ([2]; mexf 394nl) was > 10 µM. For the same molecule, the IC50 ([3]; ovxf 899l) was > 10 µM and the IC50 ([4]; cnxf 498nl) was > 10 µM.
